Assay [1] concerns U46619-induced platelet aggregation. Kind of assay: Antiplatelet aggregation activity (U46619-induced, turbidity, Lumi-aggregometer). The note with it: 20 μM, rabbit platelets, n=8. In kind it is cell-based. The method, then: 4. […] After centrifuging at […] for 10 mins, the supernatant is platelet-rich plasma (PRP). The platelet suspension is obtained from EDTA-anticoagulated PRP, and the platelet granules are finally suspended in the Tyrode's solution. […] The turbidity is measured at 37° C. by Lumi-aggregometer connected with two dual channel recorders as the aggregation.

The test system of assay [2] is STZ-induced diabetic rats. Kind of assay: Change of insulin and fasting blood glucose after administration, STZ-induced diabetic rats. The assay is classed as in vivo. Particulars: 4 mg/kg. As for the experimental part:
Nateglinide, repaglinide or the placebo is administered on day 1 before one hour of the breakfast, and the KMUP-1/KMUP-1-Nateglinide or KMUP-1-Repaglinide are orally administered at 1, 2, 3, 4, 5 and 6 hrs respectively. The amount of the serum glucose (mg/dl), the amount of the serum insulin (mg/dl), the body weight (g) and the change of the body weight are measured.

In assay [3] the test system is H1N1 virus. The assay is classed as cell-based. Particulars: MDCK culture infected with H1N1 virus; for IC50: n=6.
Assay [4] deals with C57BL/6J mice. Kind of assay: The lipid-lowering effect in C57BL/6J mice (high-fat diet). In kind it is in vivo. Particulars: HFD, after 21 days. The method, then: (§1) 8-week C57BL/6J mice are divided into standard diet (STD) group and the high-fat diet (HFD) group. In the HFD group, the KMUP-1 HCl salt (1, 2.5 and 5 mg/kg), the simvastatin (5 mg/kg), the KMUP-1-Nicotinic acid complex (1 and 5 mg/kg), the KMUP-1-Simvastatinic acid complex (1 and 5 mg/kg), KMUP-1-Gemfibrozil complex (2.5 mg/kg), KMUP-1-Fibric acid complex (2.5 mg/kg), KMUP-1-γ-polyglutamic acid complex (2.5 mg/kg) and KMUP-1-Citric acid complex (2.5 mg/kg) are administered orally. After 21 days, the amounts (mg/dl) of the triglyceride (TG), the total cholesterol (tot.-C), the high density lipoprotein cholesterol (HDL-C), the low density lipoprotein cholesterol (LDL-C) and the serum glucose of six mice for each group are measured as shown in Tables 2 and 3.

The test system of assay [5] is C57BL/6J mice. Nature of the assay: The amount of the serum glucose and insulin in C57BL/6J mice (high-fat diet). In kind it is in vivo. Also on record: The amount of serum insulin: unit not given here. Particulars: 1 mg/kg orally, HFD, after 21 days. As for the experimental part: as §1
In assay [6] the test system is STZ-induced diabetic rats. Nature of the assay: Serum glucose and body weight in streptozosin (STZ)-induced diabetic rats. In kind it is in vivo. Particulars: 5 mg/kg orally, after 21 days. As for the experimental part: 2. The effect of KMUP-1 on decreasing the amount of the serum glucose in streptozosin (STZ)-induced diabetic rats
60 mg/kg of streptozosin is injected intravenously for inducing the STZ-induced rats, and the KMUP-1 HCl salt (0.5, 1.5, 2.5 and 5 mg/kg) and KMUP-1-Simvastatinic acid (5 mg/kg) are administered orally. After 21 days, the amount of the serum glucose (mg/dl), the amount of the serum insulin (mg/dl), the body weight (g) and the change of the body weight are measured.

Assay [7] concerns monocrotaline (MCT)-treated rats. Kind of assay: Pulmonary artery blood pressure in monocrotaline (MCT)-treated rats. The assay is classed as in vivo, male Wistar rats. The method, then:
5. the monocrotaline (MCT)-treated rats show the […] pulmonary aterial hypertension
Pulmonary aterial hypertension in MCT-treated rats is caused on day 21 after the intraperitoneal injection. Orally administered KMUP-1 HCl salt (2.5 mg/kg), simvastatin (2.5 mg/kg), KMUP-1-nicotinic acid complex (2.5 mg/kg), KMUP-1-Citric acid complex (2.5 mg/kg), KMUP-1-Simvastatinic acid complex (2.5 mg/kg) and KMUP-1-γ-Polyglutamic acid complex (2.5 mg/kg), or the inhalated KMUP-1-PGI2 (0.1 mM) every day may inhibit the male Wistar rats treated with MCT, which show the effect of decreasing the pulmonary artery blood pressure (PABP).

Assay [8] relates to TGF-β. Kind of assay: Bleomycin-induced lung fibrosis in mice, TGF-β expression by EIA. The assay is classed as in vivo. Particulars: bleomycin 60 mg/kg. The method, then:
6. KMUP-1 salts inhibit the lung fibrosis in mice induced by bleomycin (BM) mediated via transforming growth factor beta (TGF-β) expression in lung The increased amount of the synthetic collagen and the generation of the macrophage in alveolus may facilitate the formulation of TGF-β, and the expression of TGF-β is looked as a biomarker of the lung fibrosis. […] The state of the TGF-β expression in the irrigation solution is measured by the enzyme immunoassay (EIA).

The subject of assay [9] is RAW 264.7 cells. Kind of assay: Inhibition of RANKL-induced osteoclast differentiation (TRAP staining). In kind it is cell-based. The note with it: 5 μM, 5 days; for TRAP-Positive Cells: RANKL 10 μg/ml, n=5.

The values that follow come from patent US8470805B2, “Processes for preparing piperazinium salts of KMUP and use thereof” (Kaohsiung Medical University, priority 2009, dated 2013).

For the molecule `COc1ccc2c(c1)c(CC(=O)O)c(C)n2C(=O)c1ccc(Cl)cc1.Cn1c(=O)c2c(ncn2CCN2CCN(c3ccccc3Cl)CC2)n(C)c1=O` [KMUP-1-Indomethacin, KMUP-1-Indomethacin complex], the “The ratio of the antiplatelet aggregation” value in assay [1] is 92 ± 5.8 %.

For the molecule `CC(C)[C@H]1CC[C@H](C(=O)N[C@H](Cc2ccccc2)C(=O)O)CC1.Cn1c(=O)c2c(ncn2CCN2CCN(c3ccccc3Cl)CC2)n(C)c1=O` [KMUP-1-Nat, KMUP-1-Nateglinide Complex], the results for the “The change of the fasting blood glucose after administration” value (from here on “The change of the fasting blood glucose”) in assay [2] (1 hr), in [2] (2 hr) and in assay [2] (6 hr) were 4.67 ± 0.7 mg/dL, 0.8 ± 0.4 mg/dL and -0.2 ± 0.3 mg/dL, respectively. Moreover, the “The change of the insulin after administration” value (“The change of the insulin” below) in assay [2] (1 hr) is recorded as 38 ± 2.7 U/mL; in assay [2] (2 hr), 51.3 ± 4.3 U/mL; in assay [2] (3 hr), 31.8 ± 3.7 U/mL; in assay [2] (4 hr), 21.8 ± 5.3 U/mL; in assay [2] (6 hr), 3.4 ± 0.6 U/mL.

A word on the IC50: it is the concentration that gives 50% inhibition. With `CC[C@H](C)C(=O)O[C@H]1C[C@H](O)C=C2C=C[C@H](C)[C@H](CC[C@@H](O)C[C@@H](O)CC(=O)O)[C@H]21.Cn1c(=O)c2c(ncn2CCN2CCN(c3ccccc3Cl)CC2)n(C)c1=O` [KMUP-1-Pravastatinic acid, KMUP-1-Pravastatinic acid complex], the IC50 in assay [3] was determined as 2.1 µg/mL.

`CCC(C)(C)C(=O)O[C@H]1C[C@@H](C)C=C2C=C[C@H](C)[C@H](CC[C@@H](O)C[C@@H](O)CC(=O)O)[C@H]21.Cn1c(=O)c2c(ncn2CCN2CCN(c3ccccc3Cl)CC2)n(C)c1=O` [KMUP-1-Simvastatinic acid, KMUP-1-Simvastatinic acid complex]: in assay [4] (5 mg/kg orally), the HDL-C is 108.4 ± 1.3 mg/dL, the LDL-C was 17.3 ± 1.4 mg/dL, the TG was determined as 81.2 ± 4.4 mg/dL and the tot.-C came out at 129.7 ± 1.4 mg/dL. Further, in [5], the “The amount of serum glucose” value is 117.3 ± 3.8 mg/dL and the “The amount of serum insulin” value was found to be 0.85 ± 0.17. Moreover, the “The amount of the serum glucose” value in [6] was determined as 194.2 ± 16.1 mg/dL. The molecule also showed a PABP in assay [7] (2.5 mg/kg/day p.o.) of 12 ± 1.3 mmHg. The “Changing % of the lung TGF-β” value in assay [8] (2.5 mg/kg orally) turned out to be 45 ± 4.5 %. Also, the “growth of the virus (in words)” value in assay [3] (in glucose solution) was “can inhibit the growth of the virus”. This molecule also gave an IC50 in [3] of 1.8 µg/mL. Moreover, in assay [9], the “TRAP-Positive Cells” value was determined as 72 ± 5.

KMUP-1-PGI2 complex: the PABP in assay [7] (0.1 mM (inhalation)) came out at 10 ± 0.2 mmHg.

Turning to `CC(C)[C@H]1CC[C@H](C(=O)N[C@H](Cc2ccccc2)C(=O)O)CC1` [Nat, Nateglinide, reference compound], the “The change of the fasting blood glucose” value in assay [2] (1 hr) was 4.7 ± 0.6 mg/dL; in [2] (2 hr) it was 0.3 ± 0.2 mg/dL; in assay [2] (6 hr), -0.2 ± 0.3 mg/dL. Also, the “The change of the insulin” value is given as 42.5 ± 4.2 U/mL in [2] (1 hr); 49.3 ± 3.4 U/mL in assay [2] (2 hr); 24.4 ± 4.6 U/mL in assay [2] (3 hr); 17.8 ± 2.8 U/mL in assay [2] (4 hr); 4.4 ± 0.6 U/mL in assay [2] (6 hr).

The molecule `CC[C@H](C)C(=O)O[C@H]1C[C@@H](C)C=C2C=C[C@H](C)[C@H](CC[C@@H](O)C[C@@H](O)CC(=O)O)[C@H]21.Cn1c(=O)c2c(ncn2CCN2CCN(c3ccccc3Cl)CC2)n(C)c1=O` [KMUP-1-Lovastatinic acid, KMUP-1-Lovastatinic acid complex] gave an IC50 in assay [3] of 1.9 µg/mL. The “TRAP-Positive Cells” value in assay [9] is listed as 73 ± 6.

In assay [4] (2.5 mg/kg orally), “KMUP-1-γ-polyglutamate complex [KMUP-1-γ-polyglutamic acid]” had an HDL-C of 97.3 ± 1.6 mg/dL, an LDL-C of 16.5 ± 0.9 mg/dL, a TG of 78.2 ± 3.6 mg/dL and a tot.-C of 129.4 ± 1.4 mg/dL. Also, the PABP in [7] (2.5 mg/kg/day p.o.) is recorded as 11 ± 0.6 mmHg. Also, in assay [8] (2.5 mg/kg orally), the “Changing % of the lung TGF-β” value is given as 42 ± 1.6 %.

Consider `CCC(C)(C)C(=O)O[C@H]1C[C@@H](C)C=C2C=C[C@H](C)[C@H](CC[C@@H]3C[C@@H](O)CC(=O)O3)[C@H]21` [Simvastatin, simvastatin, reference compound], for which, in assay [4] (5 mg/kg orally), the HDL-C worked out at 103.18 ± 2.5 mg/dL, the LDL-C amounted to 15.3 ± 1.3 mg/dL, the TG worked out at 82.67 ± 6.3 mg/dL and the tot.-C amounted to 133.67 ± 4.3 mg/dL. The “Changing % of the lung TGF-β” value in assay [8] (5 mg/kg orally) is listed as 40 ± 4.3 %. Moreover, in assay [9], the “TRAP-Positive Cells” value worked out at 85 ± 7.

With `CCOc1cc(CC(=O)N[C@@H](CC(C)C)c2ccccc2N2CCCCC2)ccc1C(=O)O` [Rep, Repaglinide, reference compound], the “The change of the fasting blood glucose” value in [2] (1 hr) is 3.2 ± 0.8 mg/dL; in assay [2] (2 hr) it was 0.6 ± 0.1 mg/dL; in assay [2] (6 hr) it was -0.1 ± 0.4 mg/dL. Further, the “The change of the insulin” value in [2] (1 hr) is 47.5 ± 3.7 U/mL; in [2] (2 hr) it was 49.3 ± 3.4 U/mL; in assay [2] (3 hr), 24.4 ± 4.6 U/mL; in assay [2] (4 hr) it was 19.8 ± 3.6 U/mL; in assay [2] (6 hr) it was 4.8 ± 0.4 U/mL.

In assay [4] (2.5 mg/kg orally), `Cc1ccc(C)c(OCCCC(C)(C)C(=O)O)c1.Cn1c(=O)c2c(ncn2CCN2CCN(c3ccccc3Cl)CC2)n(C)c1=O` [KMUP-1-Gemfibrozil, KMUP-1-gemfibrozil complex] showed an HDL-C of 98.7 ± 1.8 mg/dL, an LDL-C of 18.2 ± 1.8 mg/dL, a TG of 79.2 ± 4.6 mg/dL and a tot.-C of 130.7 ± 1.7 mg/dL.

For `CC(C)c1c(C(=O)Nc2ccccc2)c(-c2ccccc2)c(-c2ccc(F)cc2)n1CC[C@@H](O)C[C@@H](O)CC(=O)O.Cn1c(=O)c2c(ncn2CCN2CCN(c3ccccc3Cl)CC2)n(C)c1=O` [KMUP-1-Atorvastatinic acid, KMUP-1-Atorvastatinic acid complex], the “TRAP-Positive Cells” value in assay [9] is 78 ± 3.

Consider KMUP-1-Repaglinide Complex, for which the entries for the “The change of the fasting blood glucose” value in [2] (1 hr), in assay [2] (2 hr) and in [2] (6 hr) were 5.7 ± 0.8 mg/dL, 0.5 ± 0.2 mg/dL and -0.3 ± 0.1 mg/dL, respectively. Further, the “The change of the insulin” value in [2] (1 hr) worked out at 39.5 ± 3.8 U/mL; in assay [2] (2 hr), 47.3 ± 2.2 U/mL; in [2] (3 hr), 27.4 ± 2.8 U/mL; in assay [2] (4 hr) it was 14.8 ± 3.7 U/mL; in [2] (6 hr), 2.8 ± 0.5 U/mL.

In [4] (2.5 mg/kg orally), `CC(C)(Oc1ccc(C(=O)c2ccc(Cl)cc2)cc1)C(=O)O.Cn1c(=O)c2c(ncn2CCN2CCN(c3ccccc3Cl)CC2)n(C)c1=O` [KMUP-1-Fibric acid, KMUP-1-fibric acid complex] gave an HDL-C of 98.4 ± 1.3 mg/dL, an LDL-C of 18.4 ± 2.2 mg/dL, a TG of 80.2 ± 3.2 mg/dL and a tot.-C of 132.7 ± 1.3 mg/dL.

Consider `Cn1c(=O)c2c(ncn2CCN2CCN(c3ccccc3Cl)CC2)n(C)c1=O` [KMUP-1, 7-[2-[4-(2-chlorobenzene)piperazinyl]ethyl]-1,3-dimethylxanthine], for which the “TRAP-positive cell count caused by RANKL (in words)” value in [9] is on record as “suppressed the TRAP-positive cell count”.
